# Data from paper PMC10057391, “Novel ^68Ga-Labeled Pyridine-Based Fibroblast Activation Protein-Targeted Tracers with High Tumor-to-Background Contrast” (Pharmaceuticals, 2023).
# Where two headings read alike, the source gives them in different places.
# How the values were obtained:
# [1] = system: FAP; set-up: method as in PMID 24617858; conditions: cited from earlier work
# [2] = system: HEK293T:hFAP tumor xenografts; test: PET/CT imaging in mice bearing HEK293T:hFAP tumor xenografts; type: in vivo; conditions: PET imaging and biodistribution, 1 h post-injection
# Protocol: Both tracers were excreted primarily through the renal pathway and had very low background uptake in normal organs/tissues. Although [^68Ga]Ga-AV02053 and [^68Ga]Ga-AV02070 had lower tumor uptake than that of previously reported [^68Ga]Ga-FAPI-04, both of them had much lower background uptake, resulting in better tumor-to-background contrast than that of [^68Ga]Ga-FAPI-04 (Figure 3).
# (§1) Imaging and biodistribution studies were performed using male NOD.Cg-Rag1tm1Mom Il2rgtm1Wjl/SzJ (NRG) mice following previously published procedures. The experiments were conducted according to the guidelines established by the Canadian Council on Animal Care and approved by Animal Ethics Committee of the University of British Columbia. The mice were briefly sedated by inhalation of 2.5% isoflurane in oxygen, and HEK293T:hFAP cells (8.5 × 10^6 cells) were inoculated subcutaneously behind the left shoulder. When the tumor grew to 5–8 mm in ~3 weeks, the mice were used for PET/CT imaging and biodistribution studies.
# PET/CT imaging experiments were carried out using a Siemens (Knoxville, TN, USA) Inveon micro PET/CT scanner. Each tumor-bearing mouse was injected with ~4–6 MBq of ^68Ga-labeled tracer through a lateral caudal tail vein under 2.5% isoflurane in oxygen anesthesia, followed by recovery and then roamed freely in its cage during the uptake period. […]
# [3] = system: HEK293T:hFAP tumor xenografts; test: Ex vivo biodistribution and blocking study in HEK293T:hFAP tumor-bearing mice; conditions: 1 h post-injection; for average kidney uptake: range given for the two tracers together; for tumor uptake: HEK293T:hFAP tumor; for average tumor uptake with co-injection of FAPI-04 / reduction of average tumor uptake by co-injection of FAPI-04: blocking, FAPI-04 250 µg co-injected
# Protocol: Biodistribution studies were conducted at 1 h post-injection with [^68Ga]Ga-AV02053 and [^68Ga]Ga-AV02070 in HEK293T:hFAP tumor-bearing mice, and the data are compared with those obtained previously using [^68Ga]Ga-FAPI-04 (Figure 4 and Figure 5 and Table S4). The results are consistent with the observations from their PET images. Except tumor and kidneys (1.35–1.85%ID/g), the average uptake values of [^68Ga]Ga-AV02053 and [^68Ga]Ga-AV02070 in all other collected organs/tissues were <0.6%ID/g. The tumor uptake values of [^68Ga]Ga-AV02053, [^68Ga]Ga-AV02070, and [^68Ga]Ga-FAPI-04 were 5.60 ± 1.12, 7.93 ± 1.88, and 12.5 ± 2.00%ID/g, respectively. […] This also led to higher tumor-to-blood, tumor-to-muscle and tumor-to-bone uptake ratios for [^68Ga]Ga-AV02053 (25.2 ± 1.97, 51.2 ± 19.8 and 38.1 ± 5.03, respectively) and [^68Ga]Ga-AV02070 (22.9 ± 10.1, 45.7 ± 9.88 and 34.3 ± 7.35, respectively) than [^68Ga]Ga-FAPI-04 (11.7 ± 2.04, 18.8 ± 4.09 and 3.93 ± 1.16, respectively) (p < 0.05).
# as §1
# For biodistribution studies, the mice were injected with the radiotracer (~2–4 MBq), as described above. For the blocking study, the mice were co-injected with 250 μg of FAPI-04. At 1 h post-injection, the mice were euthanized by CO2 inhalation. Blood was withdrawn by cardiac puncture, and organs/tissues of interest were collected, weighed, and counted using a Perkin Elmer (Waltham, MA, USA) Wizard2 2480 automatic gamma counter.
# [4] = LogD7.4 measurement, shake flask method (n-octanol/PBS pH 7.4); type: physicochemical; conditions: n-octanol / phosphate-buffered saline pH 7.4, shake flask
# Excerpt: The lipophilicity of ^68Ga-labeled AV02053, AV02070, and FAPI-04 were estimated by measuring their LogD7.4 values using the shake flask method with n-octanol and phosphate-buffered saline (pH 7.4). The LogD7.4 values of [^68Ga]Ga-AV02053, [^68Ga]Ga-AV02070, and [^68Ga]Ga-FAPI-04 were −3.75 ± 0.16, −3.45 ± 0.10, and −1.02 ± 0.35, respectively. The values indicate that these ^68Ga-labeled tracers are hydrophilic, and the pyridine-based FAP-targeted tracers, [^68Ga]Ga-AV02053 and [^68Ga]Ga-AV02070, are more hydrophilic than [^68Ga]Ga-FAPI-04.
# The lipophilicity characteristics of the ^68Ga-labeled pyridine-based FAPIs were determined by calculating the logarithm of the distribution coefficient (logD) in n-octanol/phosphate-buffered saline (PBS) of pH 7.4. Purified ^68Ga-labeled tracer (50 µL) was added into a test tube containing 1 mL n-octanol and 1 mL PBS. The mixture was vortexed, followed by centrifugation for 5 min at 3000 rpm. The two layers were then collected separately, and the radioactivity was counted using a Perkin Elmer (Waltham, MA, USA) Wizard2 2480 automatic gamma counter. After adjusting the counts to background and calculating the ratio (D) of the activity of the organic to that of the aqueous phase, the logD values were then calculated.
# [5] = system: HEK293T:hFAP tumor xenografts; set-up: method as in PMID 36770755; conditions: 1 h post-injection, cited from earlier work
# [6] = target: T1, recombinant human FAP (Homo sapiens, UniProt Q12884); test: In vitro FAP fluorescence enzyme inhibition assay (Suc-Gly-Pro-AMC substrate); type: biochemical; conditions: nonradioactive Ga-complexed standards
# T1 construct: purchased Bio-legend, San Diego, CA, USA
# T1 sequence (Q12884 1-760): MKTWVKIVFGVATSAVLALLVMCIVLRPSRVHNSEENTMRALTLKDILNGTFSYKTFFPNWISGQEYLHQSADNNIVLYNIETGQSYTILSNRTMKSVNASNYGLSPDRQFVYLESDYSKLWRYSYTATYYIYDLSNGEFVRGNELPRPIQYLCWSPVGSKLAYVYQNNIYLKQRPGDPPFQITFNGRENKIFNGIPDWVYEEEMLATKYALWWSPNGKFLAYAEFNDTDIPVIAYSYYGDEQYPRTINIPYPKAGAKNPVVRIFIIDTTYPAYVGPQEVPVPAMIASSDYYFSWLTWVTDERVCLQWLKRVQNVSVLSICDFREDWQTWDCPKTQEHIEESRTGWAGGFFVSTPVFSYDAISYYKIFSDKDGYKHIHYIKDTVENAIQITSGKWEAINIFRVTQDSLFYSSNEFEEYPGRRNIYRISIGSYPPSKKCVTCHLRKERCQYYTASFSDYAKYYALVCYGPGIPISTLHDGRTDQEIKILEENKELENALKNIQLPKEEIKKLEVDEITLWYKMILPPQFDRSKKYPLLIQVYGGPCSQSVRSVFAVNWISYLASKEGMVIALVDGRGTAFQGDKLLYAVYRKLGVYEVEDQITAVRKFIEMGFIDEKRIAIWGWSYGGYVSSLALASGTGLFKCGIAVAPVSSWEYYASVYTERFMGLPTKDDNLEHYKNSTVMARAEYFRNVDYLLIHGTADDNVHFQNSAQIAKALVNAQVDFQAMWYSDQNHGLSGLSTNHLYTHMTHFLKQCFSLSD
# Protocol: The binding affinities of Ga-AV02053 and Ga-AV02070 to human FAP were measured by an enzyme inhibition assay using Suc-Gly-Pro-AMC as the FAP substrate. The human FAP enzymatic activity on the substrate was inhibited by Ga-AV02053 and Ga-AV02070 in a dose dependent-manner (Figure 2).
# The half maximal inhibitory concentration (IC50) values of the tested compounds for FAP were measured by in vitro enzymatic assay. The recombinant human FAP (Bio-legend, San Diego, CA, USA; 0.2 µg/mL, 50 µL) was added into costar 96-well plate. PBS and varied concentrations (0.2 pM to 2 µM) of tested nonradioactive Ga-complexed standards were added to each well (in duplicate) containing the recombinant human FAP. After being incubated for 30 min at 37 °C, 50 µL of Suc-Gly-Pro-AMC (2 µM, Bachem, Torrance, CA, USA) was added to each well. The fluorescent signals were acquired at 15, 30, 45, and 60 min using FlexStation 3 Multi-Mode Microplate Reader with excitation at 380 nm and emission at 460 nm. The IC50 (FAP) values were calculated using “nonlinear fit model” built-in model in GraphPad Prism 7.02 software.
compound,measurement,setting,value
N#C[C@@H]1CCCN1C(=O)CNC(=O)c1ccncc1 [(pyridine-4-carbonyl)glycyl-(2S)-cyanopyrrolidine],IC50,[1],63 nM
CN(CCN(C)c1ccc(C(=O)NCC(=O)N2CC(F)(F)C[C@H]2C#N)cn1)C(=O)CN1CCN(CC(=O)[O-])CCN(CC(=O)[O-])CCN(CC(=O)[O-])CC1.[68Ga+3] [[^68Ga]Ga-AV02053],excretion pathway,[2],excreted mainly through the renal pathway
same,average uptake in all other collected organs/tissues (except tumor and kidneys),[3],< 0.6 %ID/g
same,average uptake in other major organs with vs without co-injection of FAPI-04,[3],no significant difference
same,blood uptake,[3],0.22 ± 0.04 %ID/g
same,bone uptake,[3],0.14 ± 0.02 %ID/g
same,muscle uptake,[3],0.12 ± 0.05 %ID/g
same,tumor-to-blood uptake ratio,[3],25.2 ± 1.97
same,tumor-to-bone uptake ratio,[3],38.1 ± 5.03
same,tumor-to-muscle uptake ratio,[3],51.2 ± 19.8
same,average kidney uptake,[3],1.35–1.85 %ID/g
same,tumor uptake,[3],5.6 ± 1.12 %ID/g
same,average tumor uptake with co-injection of FAPI-04,[3],0.30 %ID/g
same,reduction of average tumor uptake by co-injection of FAPI-04,[3],95%
same,LogD7.4,[4],−3.75 ± 0.16
N#C[C@@H]1CC(F)(F)CN1C(=O)CNC(=O)c1ccnc2ccc(OCCCN3CCN(C(=O)CN4CCN(CC(=O)[O-])CCN(CC(=O)[O-])CCN(CC(=O)[O-])CC4)CC3)cc12.[68Ga+3] [[^68Ga]Ga-FAPI-04],LogD7.4,[4],−1.02 ± 0.35
same,blood uptake,[5]; obtained previously,1.07 ± 0.08 %ID/g
same,bone uptake,[5]; obtained previously,3.36 ± 1.09 %ID/g
same,muscle uptake,[5]; obtained previously,0.67 ± 0.05 %ID/g
same,tumor-to-blood uptake ratio,[5]; obtained previously,11.7 ± 2.04
same,tumor-to-bone uptake ratio,[5]; obtained previously,3.93 ± 1.16
same,tumor-to-muscle uptake ratio,[5]; obtained previously,18.8 ± 4.09
same,tumor uptake,"[5]; HEK293T:hFAP tumor, previously reported",12.5 ± 2.00 %ID/g
CN(CCN(C)c1ccc(C(=O)NCC(=O)N2CC(F)(F)C[C@H]2C#N)cn1)C(=O)CN1CCN(CC(=O)[O-])CCN(CC(=O)[O-])CCN(CC(=O)[O-])CC1.[Ga+3] [Ga-AV02053],IC50,[6],187 ± 52 nM
CN(CCN(C)c1cc(C(=O)NCC(=O)N2CC(F)(F)C[C@H]2C#N)ccn1)C(=O)CN1CCN(CC(=O)[O-])CCN(CC(=O)[O-])CCN(CC(=O)[O-])CC1.[68Ga+3] [[^68Ga]Ga-AV02070],excretion pathway,[2],excreted mainly through the renal pathway
same,average uptake in all other collected organs/tissues (except tumor and kidneys),[3],< 0.6 %ID/g
same,average uptake in other major organs with vs without co-injection of FAPI-04,[3],no significant difference
same,blood uptake,[3],0.36 ± 0.05 %ID/g
same,bone uptake,[3],0.23 ± 0.06 %ID/g
same,muscle uptake,[3],0.19 ± 0.10 %ID/g
same,tumor-to-blood uptake ratio,[3],22.9 ± 10.1
same,tumor-to-bone uptake ratio,[3],34.3 ± 7.35
same,tumor-to-muscle uptake ratio,[3],45.7 ± 9.88
same,average kidney uptake,[3],1.35–1.85 %ID/g
same,tumor uptake,[3],7.93 ± 1.88 %ID/g
same,average tumor uptake with co-injection of FAPI-04,[3],0.21 %ID/g
same,reduction of average tumor uptake by co-injection of FAPI-04,[3],97%
same,LogD7.4,[4],−3.45 ± 0.10
CN(CCN(C)c1cc(C(=O)NCC(=O)N2CC(F)(F)C[C@H]2C#N)ccn1)C(=O)CN1CCN(CC(=O)[O-])CCN(CC(=O)[O-])CCN(CC(=O)[O-])CC1.[Ga+3] [Ga-AV02070],IC50,[6],17.1 ± 4.6 nM
